Reference: patent US20260216197A1, “WRN HELICASE INHIBITOR” (SUZHOU PUHE BIOPHARMA CO., LTD., priority 2022, published 2026)
Where two headings read alike, the source gives them in different places. Blank lines part the entries; values can stand above or below the compound they belong to.

Tests used:
[1] = system: MSS colorectal cancer HT-29 cell line; experiment: 2D anti-proliferative activity, MSS HT-29 cells (CTG, 5 days); format: cell-based; conditions: Homo sapiens, 120 h
Experimental: The molecules of the present disclosure were tested for their anti-proliferative activity against MSS tumor cells.
(§1) The MSS HT-29 colorectal cancer cells were cultured in McCoy's 5A medium containing 10% FBS and 1% penicillin-streptomycin in a 37° C., 5% CO2 constant temperature incubator. A 40 μL cell suspension was added to each well of a 384-well microplate. Using Echo, 40 nL of compounds at different concentrations was dispensed into each well, followed by incubation in a 37° C., 5% CO2 constant temperature incubator for 5 days. Then, 40 μL of CTG solution (Promega, Cat No. G7573) was added to each well, and the plate was incubated in the dark in a 37° C., 5% CO2 constant temperature incubator for 30 minutes. Luminescence was measured using an Envision multi-function microplate reader (Perkin Elmer, Model: Envision 2104). The luminescent signal was proportional to the amount of ATP in the system, and the amount of ATP directly represented the number of living cells in the system.

[2] = target: WRN helicase (Homo sapiens, UniProt Q14191); experiment: WRN helicase hydrolysis/unwinding of double-stranded DNA (fluorescence); format: biochemical
Experimental: The activity of the molecules of the present disclosure on the hydrolysis of double-stranded PP-6TR DNA by WRN helicase was tested.
The working solution and buffer were prepared, and the test compound was dissolved in DMSO followed by a4-fold dilution (with a final concentration of 10 μM as the starting concentration). Then, 0.2 μL of the test compound solution was added to a384-well plate, followed by 10 μL of (2×) WRN enzyme solution. The mixture was incubated in the dark for 30 minutes, after which 10 μL of substrate detection solution containing double-stranded DNA was added to initiate the reaction (DNA length: 19 bp, labeled with TAMRA at the 3′ end and BHQ2 at the 5′ end). The mixture was incubated at room temperature for 60 minutes. The inhibitory activity (IC50) against the WRN enzyme was calculated based on the fluorescence change (Ex530/Em590) between the blank group (DMSO) and the compound group.

[3] = system: MSI-H colorectal cancer SW48 cell line; experiment: 2D anti-proliferative activity, MSI-H SW48 cells (CTG, 5 days); format: cell-based; conditions: for IC50: 5 days; for inhibition at 38.15 pM: 0.038146973 nM; for inhibition at 0.000152588 µM: 0.152587891 nM; for inhibition at 0.000610352 µM: 0.610351563 nM; for inhibition at 0.00244141 µM: 2.44140625 nM; for inhibition at 0.00976562 µM: 9.765625 nM; for inhibition at 0.0390625 µM: 39.0625 nM; for inhibition at 0.15625 µM: 156.25 nM; for inhibition at 0.625 µM: 625 nM; for inhibition at […]: 2500 nM; for inhibition at 10 µM: 10000 nM
Experimental: The molecules of the present disclosure were tested for their anti-proliferative activity against MSI-H tumor cells.
The proliferation of tumor cells with microsatellite instability MSI-H is sensitive to WRN inhibitors, while the proliferation of microsatellite stable (MSS) tumor cells is insensitive to WRN inhibitors. By testing the activities of the two, it is shown that the molecules of the present disclosure have an inhibitory and synthetic lethal effect on WRN at the cellular level.
as §1, with “MSI-unstable SW48” for “MSS HT-29”, “RPMI 1640” for “McCoy's 5A”

[4] = Liver microsome stability test; format: in vitro ADME; conditions: human liver microsomes 0.5 mg/mL, compound 1 μM, NADPH 1 mM, 60 minutes; for microsomal CLint at 1 μM: read-out: Human Clint μL/min/mg Protein
Experimental: The liver microsome stability test of the compounds is as follows:
The compounds of the present disclosure were subjected to a liver microsome stability test. The compounds to be tested were co-incubated with liver microsomes of different species with or without the addition of NADPH. The final concentration of the compounds to be tested in the test system was 1 μM, the final concentration of NADPH was 1 mM, and the final concentration of liver microsomes was 0.5 mg/mL.

[5] = Pharmacokinetic evaluation in mice; format: in vivo, CD1 female mice; conditions: for F: PO 10 mg/kg vs IV 2 mg/kg; for AUC(0-t): read-out: AUC0-24
Experimental: CD1 female mice were used as test animals and the drug was administered orally/intravenously (oral dosage: 10 mg/kg, intravenous dosage: 2 mg/kg).
Assay protocol: The oral group consisted of 3 mice per group (vehicle: 10% Hβ-CD-pH7.4), and the intravenous group consisted of 3 mice per group. […] The blood concentrations in plasma after oral and intravenous administration of mice were determined by LC/MS/MS, respectively.

[6] = Homo sapiens, read-out: Average value/ Inhibition rate
[7] = Homo sapiens, read-out: Test 1/ Inhibition rate
[8] = Homo sapiens, read-out: Test 2/ Inhibition rate
[9] = female, CD1, mouse, plasma, IV 2 mg/kg
[10] = female, CD1, mouse, plasma, PO 10 mg/kg

WRN helicase, sequence (Q14191 whole entry): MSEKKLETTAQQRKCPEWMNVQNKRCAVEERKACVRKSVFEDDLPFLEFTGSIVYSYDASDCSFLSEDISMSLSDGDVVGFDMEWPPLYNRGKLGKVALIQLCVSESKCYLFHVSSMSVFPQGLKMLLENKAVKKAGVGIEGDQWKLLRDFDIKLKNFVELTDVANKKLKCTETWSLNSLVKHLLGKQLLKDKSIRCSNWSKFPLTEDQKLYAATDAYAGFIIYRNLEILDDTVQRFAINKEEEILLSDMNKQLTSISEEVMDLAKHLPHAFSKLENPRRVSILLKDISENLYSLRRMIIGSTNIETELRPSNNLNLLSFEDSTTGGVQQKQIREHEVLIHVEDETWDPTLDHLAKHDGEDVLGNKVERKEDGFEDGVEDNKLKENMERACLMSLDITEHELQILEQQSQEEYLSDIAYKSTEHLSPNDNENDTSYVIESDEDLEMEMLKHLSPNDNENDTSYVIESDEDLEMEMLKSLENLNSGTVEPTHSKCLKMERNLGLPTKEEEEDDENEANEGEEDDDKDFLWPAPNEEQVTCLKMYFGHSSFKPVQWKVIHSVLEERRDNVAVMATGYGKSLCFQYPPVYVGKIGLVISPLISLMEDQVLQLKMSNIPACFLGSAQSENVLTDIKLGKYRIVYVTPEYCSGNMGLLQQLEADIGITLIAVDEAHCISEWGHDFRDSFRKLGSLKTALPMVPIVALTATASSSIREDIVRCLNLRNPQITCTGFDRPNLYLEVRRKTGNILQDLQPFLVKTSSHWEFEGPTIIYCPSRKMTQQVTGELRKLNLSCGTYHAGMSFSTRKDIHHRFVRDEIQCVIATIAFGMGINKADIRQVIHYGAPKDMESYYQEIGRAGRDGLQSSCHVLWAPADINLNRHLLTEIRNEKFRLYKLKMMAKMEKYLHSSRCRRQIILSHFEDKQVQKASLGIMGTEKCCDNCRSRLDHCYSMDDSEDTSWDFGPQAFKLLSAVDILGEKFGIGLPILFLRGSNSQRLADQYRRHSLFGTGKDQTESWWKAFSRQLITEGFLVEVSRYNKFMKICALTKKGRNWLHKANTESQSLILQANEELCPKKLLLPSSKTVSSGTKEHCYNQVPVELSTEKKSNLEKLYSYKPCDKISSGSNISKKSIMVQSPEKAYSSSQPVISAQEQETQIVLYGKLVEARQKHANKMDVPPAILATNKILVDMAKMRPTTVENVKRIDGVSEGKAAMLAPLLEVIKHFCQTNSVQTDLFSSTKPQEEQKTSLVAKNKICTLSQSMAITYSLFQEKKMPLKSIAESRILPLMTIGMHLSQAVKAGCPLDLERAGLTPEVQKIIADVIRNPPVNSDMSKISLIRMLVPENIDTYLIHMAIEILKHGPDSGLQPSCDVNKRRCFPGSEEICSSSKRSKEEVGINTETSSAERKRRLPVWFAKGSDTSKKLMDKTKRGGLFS

IC50 [1]: > 10000 nM
IC50 [2]: 3.9 nM
IC50 ([3]; Homo sapiens, 120 h): 2200 nM
Compound: CCc1c(N2CCN(C(=O)c3ncnc(C)c3O)CC2)c(=O)n2nc(C3=CCOCC3)nc2n1CC(=O)Nc1ccc(C(F)(F)F)c2ncsc12 [Compound H14]

IC50 [2]: 16 nM
IC50 ([3]; Homo sapiens, 120 h): 2540 nM
Compound: CCc1c(N2CCN(C(=O)c3ncccc3O)CC2)c(=O)n2nc(C3=CCOCC3)nc2n1CC(=O)NC12CC(C(F)(F)F)(C1)C2 [Compound A2, reference compound]

IC50 ([3]; Homo sapiens, 120 h): 125 nM
Compound: CCc1c(N2CCN(C(=O)c3ncnc(C)c3O)CC2)c(=O)n2nc(C3=CCOCC3)nc2n1CC(=O)Nc1ccc(Br)c2ccoc12 [Compound H25]

IC50 ([3]; Homo sapiens, 120 h): 137 nM
Compound: CCc1c(N2CCN(C(=O)c3ncnc(C)c3O)CC2)c(=O)n2nc(C3=CCOCC3)nc2n1CC(=O)Nc1ccc(Cl)c2ccoc12 [Compound H26]

IC50 [2]: 3890 nM
Compound: CCc1c(N2CC3(CN(C(=O)c4ncnc(C)c4O)C3)C2)c(=O)n2nc(C3=CCOCC3)nc2n1CC(=O)Nc1ccc(C(F)(F)F)cc1Cl [Compound P1]

IC50 [2]: 295 nM
Compound: CCc1c(N2CCN(C(=O)c3ncnc(C)c3O)CC2)c(=O)n2nc(C3=CCOCC3)nc2n1CC(=O)Nc1ccc2c(c1)NCC2(O)C(F)(F)F (stereo not drawn) [Compound H5]

IC50 [1]: > 10000 nM
Compound: Cc1ncnc(C(=O)N2CCN(c3c(C4CC4)n(CC(=O)Nc4ccc(C(F)(F)F)c5ccsc45)c4nc(C5=CCOCC5)nn4c3=O)CC2)c1O [Compound H18]

IC50 [1]: > 10000 nM
CLint scaled at 1 μM [4]: 6 mL/min/kg
microsomal CLint at 1 μM [4]: 4.8 µL/min/mg
IC50 ([3]; Homo sapiens, 120 h): 175 nM
Compound: CCc1c(N2CCN(C(=O)c3ncnc(C)c3O)CC2)c(=O)n2nc(C3=CCOCC3)nc2n1CC(=O)Nc1ccc(C(F)(F)F)c2scnc12 [Compound H21]

IC50 ([3]; Homo sapiens, 120 h): 474 nM
Compound: CCc1c(N2CCN(C(=O)c3ncnc(C)c3O)CC2)c(=O)n2nc(C3=CCOCC3)nc2n1CC(=O)Nc1ccc2c3c1ccn3CCC2 [Compound H24]

IC50 [1]: > 10000 nM
IC50 ([3]; Homo sapiens, 120 h): 123 nM
Compound: CCc1c(N2CCN(C(=O)c3ncnc(C)c3O)C[C@@H]2C)c(=O)n2nc(C3=CCOCC3)nc2n1CC(=O)Nc1ccc(C(F)(F)F)c2ccsc12 [Compound H17]

F [5]: 14%
IC50 ([3]; Homo sapiens, 120 h): 261 nM
Compound: CCc1c(N2CCN(C(=O)c3ncccc3O)CC2)c(=O)n2nc(-c3cccnc3)nc2n1CC(=O)Nc1ccc(C(F)(F)F)cc1C [Compound A1, reference compound]
inhibition at 38.15 pM [3, 6]: -0.406%
inhibition at 38.15 pM [3, 7]: -2%
inhibition at 38.15 pM [3, 8]: 1.19%
inhibition at 0.000152588 µM [3, 6]: -9.39%
inhibition at 0.000152588 µM [3, 7]: -13.2%
inhibition at 0.000152588 µM [3, 8]: -5.61%
inhibition at 0.000610352 µM [3, 6]: -2.32%
inhibition at 0.000610352 µM [3, 7]: -2.37%
inhibition at 0.000610352 µM [3, 8]: -2.27%
inhibition at 0.00244141 µM [3, 6]: -11.4%
inhibition at 0.00244141 µM [3, 7]: -13.8%
inhibition at 0.00244141 µM [3, 8]: -8.9%
inhibition at 0.00976562 µM [3, 6]: -4.03%
inhibition at 0.00976562 µM [3, 7]: 0.0311%
inhibition at 0.00976562 µM [3, 8]: -8.09%
inhibition at 0.0390625 µM [3, 6]: -11.9%
inhibition at 0.0390625 µM [3, 7]: -12.6%
inhibition at 0.0390625 µM [3, 8]: -11.1%
inhibition at 0.15625 µM [3, 6]: 6.4%
inhibition at 0.15625 µM [3, 7]: -2.14%
inhibition at 0.15625 µM [3, 8]: 14.9%
inhibition at 0.625 µM [3, 6]: 97.4%
inhibition at 0.625 µM [3, 7]: 97.9%
inhibition at 0.625 µM [3, 8]: 96.9%
inhibition at […] [3, 6]: 101%
inhibition at […] [3, 7]: 99.8%
inhibition at […] [3, 8]: 101%
inhibition at 10 µM [3, 6]: 102%
inhibition at 10 µM [3, 7]: 101%
inhibition at 10 µM [3, 8]: 102%

IC50 [1]: > 10000 nM
IC50 ([3]; Homo sapiens, 120 h): > 10000 nM
Compound: CCc1c(N2CCN(C(=O)c3ncnc(C)c3O)CC2)c(=O)n2nc(C3=CCOCC3)nc2n1CC(=O)Nc1ccc2c3c1ncn3CCC2 [Compound H23]

IC50 [2]: 625 nM
Compound: CCc1c(N2CCN(C(=O)c3ncnc(C)c3O)CC2)c(=O)n2nc(C3=CCOCC3)nc2n1CC(=O)Nc1ccc2c(C(F)(F)F)c[nH]c2c1 [Compound H6]

IC50 [2]: 1.9 nM
IC50 [3]: 135 nM
Compound: CCc1c(N2CCN(C(=O)c3ncccc3O)CC2)c(=O)n2nc(-c3cccs3)nc2n1CC(=O)Nc1ccc(C(F)(F)F)cc1Cl [Compound P4]

IC50 [2]: 9.5 nM
IC50 ([3]; Homo sapiens, 120 h): 1940 nM
Compound: CCc1c(N2CCN(C(=O)c3ncccc3O)CC2)c(=O)n2nc(C3=CCOCC3)nc2n1CC(=O)Nc1ccc(C(F)(F)F)c2c1OCCO2 [Compound H7]

IC50 [1]: > 10000 nM
CLint scaled at 1 μM [4]: 2.5 mL/min/kg
microsomal CLint at 1 μM [4]: 2 µL/min/mg
F [5]: 35%
clearance [5, 9]: 50.4 mL/min/kg
half-life [5, 9]: 18 min
AUC(0-t) [5, 9]: 655 ng·h/mL
C0 ([5]; female, CD1, mouse, plasma, IV 2 mg/kg, read-out: C0): 1740 ng/mL
half-life [5, 10]: 114 min
AUC(0-t) [5, 10]: 1050 ng·h/mL
Cmax ([5]; female, CD1, mouse, plasma, PO 10 mg/kg, read-out: Cmax): 693 ng/mL
Tmax ([5]; female, CD1, mouse, plasma, PO 10 mg/kg, read-out: Tmax): 15 min
IC50 ([3]; Homo sapiens, 120 h): 101 nM
Compound: CCc1c(N2CCN(C(=O)c3ncnc(C)c3O)CC2)c(=O)n2nc(C3=CCOCC3)nc2n1CC(=O)Nc1ccc(Br)c2ccsc12 [Compound H15]

IC50 [1]: > 10000 nM
CLint scaled at 1 μM [4]: 28 mL/min/kg
microsomal CLint at 1 μM [4]: 22 µL/min/mg
IC50 ([3]; Homo sapiens, 120 h): 126 nM
Compound: CCc1c(N2CCN(C(=O)c3ncnc(C)c3O)CC2)c(=O)n2nc(C3=CCC(OC)CC3)nc2n1CC(=O)Nc1ccc(C(F)(F)F)c2ccsc12 (stereo not drawn) [Compound H12]

IC50 [2]: 3.5 nM
Compound: CCc1c(N2CCN(C(=O)c3ncccc3O)CC2)c(=O)n2nc(C3=CCS(=O)(=O)CC3)nc2n1CC(=O)Nc1ccc(C(F)(F)F)cc1Cl [Compound P6]

IC50 ([3]; Homo sapiens, 120 h): 192 nM
Compound: CCc1c(N2CCN(C(=O)c3ncccc3O)CC2)c(=O)n2nc(-c3cncs3)nc2n1CC(=O)Nc1ccc(C(F)(F)F)cc1Cl [Compound P5]
